For series [1] the following is noted: cited from earlier work; for toxic dose: long-acting anesthetics.
The nature of series [2]: Toxic and maximum doses of local anesthetics (state of the art). The text has this:
The Articaine hydrochloride always belongs to the group of the short-acting local anesthetics.

The mark [3] stands for this setting: combined with a vasoconstrictor such as adrenaline.

Structures can show the parent of a compound that is named as a salt.

As to `CCCNC(C)C(=O)Nc1c(C)csc1C(=O)OC` (centres unmarked) [Articaine hydrochloride], the “toxic dose / tolerance compared with other short-acting anesthetics” value in series [1] (in vivo) was “overlapping to that of the lidocaine and mepivacaine”.

As for `CCCCN1CCCCC1C(=O)Nc1c(C)cccc1C` (centres unmarked) [Bupivacaine hydrochloride], the toxic dose in series [1] is recorded as 2 mg/kg body. The maximum volume in series [2] (5 mg/ml solution (0.5%)) was 30 mL.

`CCCCN1CCCC[C@H]1C(=O)Nc1c(C)cccc1C` [Levobupivacaine hydrochloride]: the toxic dose in series [1] is 2 mg/kg body. The maximum volume in series [2] (5 mg/ml solution (0.5%)) was 30 mL.

Turning to `CCN(CC)CC(=O)Nc1c(C)cccc1C` [Lidocaine, Lidocaine hydrochloride], in series [1] (setting [3]), the maximum dosage was 7 mg/kg and the maximum dose was 500 mg. This compound came in with a maximum volume in series [2] (human, in vivo) of 15 mL.

The values are drawn from patent US11786515B2, “Anesthetic mixtures formulations for local anesthesia, at very low concentration, to be used cold with suitable packaging” (L. MOLTENI & C. DEI FRATELLI ALITTI-SOCIETA′ DI ESERCIZIO …, priority 2018, dated 2023).
